Reference: PubChem BioAssay (NCI)
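Compound exposure: 48 hours, 5 concentrations, 96-well plates. TGI: concentration producing complete growth inhibition.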

What was measured:
Assay in all cases: NCI tumour cell line growth inhibition, 48 h
CCRF-CEM leukemia = tested on: CCRF-CEM leukemia
KM12 colon = tested on: KM12 colon
HCT-116 colon = tested on: HCT-116 colon
OVCAR-3 ovarian = tested on: OVCAR-3 ovarian
MOLT-4 leukemia = tested on: MOLT-4 leukemia
NCI-H23 lung = tested on: NCI-H23 lung
RXF 393 renal = tested on: RXF 393 renal
DU-145 prostate = tested on: DU-145 prostate
UACC-257 melanoma = tested on: UACC-257 melanoma
A498 renal = tested on: A498 renal
SR leukemia = tested on: SR leukemia
OVCAR-8 ovarian = tested on: OVCAR-8 ovarian

## O=c1[nH]cnc2c1ncn2[C@H]1CO[C@@H](CO)[C@@H]1O
CCRF-CEM leukemia
  TGI: > 100 µM
KM12 colon
  TGI: > 100 µM
HCT-116 colon
  TGI: > 100 µM
OVCAR-3 ovarian
  TGI: > 100 µM
MOLT-4 leukemia
  TGI: > 100 µM
NCI-H23 lung
  TGI: > 100 µM
RXF 393 renal
  TGI: > 100 µM
DU-145 prostate
  TGI: > 100 µM
UACC-257 melanoma
  TGI: > 100 µM
A498 renal
  TGI: > 100 µM
SR leukemia
  TGI: > 100 µM

## O=C(CSc1nc2ccc(I)cc2c(=O)n1Cc1ccccc1)Nc1ccc(Br)cc1
CCRF-CEM leukemia
  TGI: > 100 µM
KM12 colon
  TGI: > 100 µM
HCT-116 colon
  TGI: > 100 µM
OVCAR-8 ovarian
  TGI: 36.2 µM
OVCAR-3 ovarian
  TGI: > 100 µM
MOLT-4 leukemia
  TGI: > 100 µM
NCI-H23 lung
  TGI: > 100 µM
RXF 393 renal
  TGI: > 100 µM
DU-145 prostate
  TGI: > 100 µM
A498 renal
  TGI: 68.1 µM
SR leukemia
  TGI: 27.4 µM

## Cc1cc2ccccc2c[n+]1CC(=O)CC([O-])(C(F)(F)F)C(F)(F)F
CCRF-CEM leukemia
  TGI: > 100 µM
HCT-116 colon
  TGI: > 100 µM
OVCAR-8 ovarian
  TGI: > 100 µM
OVCAR-3 ovarian
  TGI: > 100 µM
MOLT-4 leukemia
  TGI: > 100 µM
NCI-H23 lung
  TGI: > 100 µM
RXF 393 renal
  TGI: > 100 µM
DU-145 prostate
  TGI: > 100 µM
UACC-257 melanoma
  TGI: > 100 µM
A498 renal
  TGI: > 100 µM
SR leukemia
  TGI: > 100 µM

## CN(C)CCOc1ccc(-c2c(Oc3ccc(Cl)cc3)c(=O)oc3ccccc23)cc1
CCRF-CEM leukemia
  TGI: > 29 µM
KM12 colon
  TGI: 48.1 µM
HCT-116 colon
  TGI: > 32.9 µM
OVCAR-8 ovarian
  TGI: > 42.8 µM
OVCAR-3 ovarian
  TGI: 34.3 µM
MOLT-4 leukemia
  TGI: > 41.8 µM
NCI-H23 lung
  TGI: 34.8 µM
RXF 393 renal
  TGI: > 48.3 µM
DU-145 prostate
  TGI: 45.5 µM
A498 renal
  TGI: 43 µM
SR leukemia
  TGI: > 30.6 µM

## COc1nc2c(c(=O)n1C)N[C@@H]1[C@@H](O)[C@H](O)CO[C@@H]1N2
CCRF-CEM leukemia
  TGI: > 100 µM
KM12 colon
  TGI: > 100 µM
HCT-116 colon
  TGI: > 100 µM
OVCAR-8 ovarian
  TGI: > 100 µM
OVCAR-3 ovarian
  TGI: > 100 µM
MOLT-4 leukemia
  TGI: > 100 µM
RXF 393 renal
  TGI: > 100 µM
DU-145 prostate
  TGI: > 100 µM
UACC-257 melanoma
  TGI: > 100 µM
A498 renal
  TGI: > 100 µM
SR leukemia
  TGI: > 100 µM

## CCCCCCCCOCC1S(=O)(=O)OCCOS1(=O)=O
CCRF-CEM leukemia
  TGI: > 100 µM
HCT-116 colon
  TGI: > 100 µM
OVCAR-8 ovarian
  TGI: > 100 µM
OVCAR-3 ovarian
  TGI: > 100 µM
MOLT-4 leukemia
  TGI: > 100 µM
NCI-H23 lung
  TGI: > 100 µM
RXF 393 renal
  TGI: > 100 µM
DU-145 prostate
  TGI: > 100 µM
UACC-257 melanoma
  TGI: > 100 µM
A498 renal
  TGI: > 100 µM
SR leukemia
  TGI: > 100 µM

## COc1ccc(-c2cc(-c3ccc(Nc4ccnc5cc(Cl)ccc45)cc3)nc(N)c2C#N)c2ccccc12
CCRF-CEM leukemia
  TGI: > 100 µM
KM12 colon
  TGI: > 100 µM
HCT-116 colon
  TGI: > 100 µM
OVCAR-8 ovarian
  TGI: > 100 µM
MOLT-4 leukemia
  TGI: > 100 µM
NCI-H23 lung
  TGI: > 100 µM
RXF 393 renal
  TGI: > 100 µM
DU-145 prostate
  TGI: > 100 µM
UACC-257 melanoma
  TGI: > 100 µM
A498 renal
  TGI: > 100 µM
SR leukemia
  TGI: > 100 µM

## O=C1/C(=C/c2cccs2)N=C(c2ccccc2)N1C1Nc2cc3c(cc2S1)NC(N1C(=O)/C(=C/c2cccs2)N=C1c1ccccc1)S3 (stereo not drawn)
KM12 colon
  TGI: > 100 µM
HCT-116 colon
  TGI: 56 µM
OVCAR-8 ovarian
  TGI: 47.2 µM
OVCAR-3 ovarian
  TGI: > 100 µM
MOLT-4 leukemia
  TGI: 59.6 µM
NCI-H23 lung
  TGI: 43.6 µM
RXF 393 renal
  TGI: 78.8 µM
DU-145 prostate
  TGI: > 100 µM
UACC-257 melanoma
  TGI: > 100 µM
A498 renal
  TGI: > 100 µM
SR leukemia
  TGI: 31 µM
